Data taken from patent publication US20250003011A1, “SAMPLE PREPARATION METHODS USING MODIFIED BASES FOR RAPID IDENTIFICATION AND SEQUENCING” (priority 2023, published 2025).

Key:
[1] = target: T1, DeepVent DNA polymerase (Pyrococcus sp., UniProt Q51334, DEL493-1029); test: Elongation (fill-in) assay on 200-mer template with modified uridine triphosphates; type: biochemical; details: modified nucleotide replaces dTTP at 100%; 72° C., 30 min
T1 construct: purchased
Description: (§1) A synthetic template of 200 bases was used to determine the capacity of Deep Vent and Manta DNA polymerase to integrate modified uridine triphosphate. The synthesis was initiated from a 20 bases complementary oligonucleotide and various conditions were tested. In lanes 1 and 6, all triphosphate nucleotide except dTTP were added in the reaction mix according to the manufacturer recommendation (negative control) to determine if the polymerase is stopped at positions where it needs to integrate a thymidine. In lane 2, dTTP was added to the reaction mix as the positive control where full length construct should be obtained. In lanes 3 and 7, 4 and 8 and 5 and 9, IdU, FdU and CldU were added to the reaction mix respectively to replace at 100% the dTTP. […] This is not the case for the Manta DNA polymerase as the only product observed is where the polymerase should have integrated a thymidine.
(§2) In order to identify the proper DNA polymerase that can utilise modified uridine triphosphate, we performed an elongation assay with different DNA polymerases and various combination of nucleotide mixes, using a 22-mer primer (PS2508, SEQ ID NO: 1) annealed to a 200-mer template (PS2509, SEQ ID NO:2). As the template contains a lot of instances of adenines, there are multiple positions where the polymerase must be able to incorporate uridine to be able to produce full length fill in reaction.
(§3) On the other hand, when dTTP or dUTP was replaced with a modified dUTP, a full-length reaction product was detected for both Manta™ and DeepVent DNA polymerases.
(§4) The conditions for the fill in reaction were as follow: dATP, dGTP, dCTP and Iodo dUTP were prepared in a mix at 500 μM each and used at a final concentration of 100 μM final; 1 μl of Manta™ or DeepVent polymerase were used on 10 pmoles of the 200-mer (PS2509) with the 22-mer primer (PS2508) pre-annealed to initiate the fill-in.
(§5) The incubation was done for 30 min at 65° C. for the Manta or 72° C. for the DeepVent, in a MiniAmp thermalCycler (Applied Biosystems) with lid at 105° C. to prevent evaporation.

[2] = target: T2, Manta DNA polymerase (Geobacillus stearothermophilus, UniProt P52026); test: as above; type: biochemical; details: modified nucleotide replaces dTTP at 100%; 65° C., 30 min
T2 construct: Bst DNA Polymerase, Large Fragment (e.g., Manta®); purchased
T2 sequence (P52026 289-876 limits assumed): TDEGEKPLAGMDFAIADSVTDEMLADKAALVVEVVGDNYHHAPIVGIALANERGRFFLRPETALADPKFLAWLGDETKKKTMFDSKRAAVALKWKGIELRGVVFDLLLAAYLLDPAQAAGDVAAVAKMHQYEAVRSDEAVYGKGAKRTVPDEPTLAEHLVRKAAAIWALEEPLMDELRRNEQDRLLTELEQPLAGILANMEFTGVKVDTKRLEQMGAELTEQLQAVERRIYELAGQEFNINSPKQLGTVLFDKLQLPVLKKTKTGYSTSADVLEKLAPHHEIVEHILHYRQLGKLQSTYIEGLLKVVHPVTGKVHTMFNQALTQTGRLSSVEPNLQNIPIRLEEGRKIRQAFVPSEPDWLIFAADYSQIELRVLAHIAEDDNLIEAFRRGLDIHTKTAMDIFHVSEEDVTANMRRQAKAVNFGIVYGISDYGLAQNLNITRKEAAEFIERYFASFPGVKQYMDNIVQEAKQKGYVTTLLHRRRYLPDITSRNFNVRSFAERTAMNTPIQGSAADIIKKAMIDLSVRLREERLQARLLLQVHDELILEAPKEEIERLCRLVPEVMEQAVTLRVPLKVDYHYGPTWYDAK
Description: as §1, §2, §3, §4, §5

[3] = target: T3, MANTA polymerase (Geobacillus stearothermophilus, UniProt P52026); test: Incorporation of two modified nucleotides in one fill-in reaction, distribution detected by antibodies on hairpins; type: biochemical; set-up: Bst DNA Polymerase, Large Fragment (e.g., Manta®); purchased; details: iodo-dUTP 5 μM and pseudo-dUTP 95 μM replacing dTTP; anti-iodouridine and anti-pseudouridine antibodies
T3 sequence (P52026 289-876 limits assumed): T2 sequence (P52026 289-876 limits assumed)
Source text: After synthesis, the hairpin was assembled and assessed with both anti-iodouridine antibody and anti-pseudouridine antibody.
FIG. 4B: For each molecule, we counted the number of positions detected by either the anti-IdU or anti-pseudouridine over the expected total number of positions for this sequence. We then plotted the distribution of each modification for all the functional molecules.
One of the 50 long oligonucleotides described in Example 3 was used as a template to incorporate two different modified nucleotides at the same time. Both iodo-dUTP as well as pseudo-dUTP were included in the nucleotide mix (at 5 μM and 95 μM respectively) during the replication step to completely replace the natural base dTTP. After synthesis of the complementary strand, the hairpin was assembled and assessed with both anti-iodouridine antibody (clone OTI2F8 from Abcam) and anti-pseudouridine antibody (Cat. No. C15200236, Diagenode) (FIG. 4A).
The distribution of each modified base in the hairpin was determined for each modification (FIG. 4B).

[4] = target: T3, MANTA polymerase; test: Measurement of the KD of modified uridine triphosphates, single-adenine template, FITC primer, PAGE; details: 65° C., 2 minutes; 100 μM dATP, dCTP, dGTP; no dTTP
Description: The reaction was supplemented with dATP, dCTP and dGTP as well as the uridine triphosphate tested (no dTTP was added to the reaction).
The KD is defined as the concentration of the modified dUTP required to produce 50% of fill in reaction. […] We then produced a second, simpler template comprising only one adenine in the template followed by 15 random bases excluding adenine (PS2972, SEQ ID NO:3). The template was designed such that the 3′ end of the complementary oligonucleotide tagged with FITC (PS1289, SEQ ID NO:4) ends at the base just before the adenine in the 32-base oligonucleotide. After annealing of these two oligonucleotides, there is thus only one A position where modified dUTP could be inserted (see FIG. 2A).
It was expected that if dCTP, dATP and dGTP were present in the reaction mix along with one of the modified uridine triphosphates, if the modified uridine was integrated by the polymerase, 16 bases would be added, thereby yielding a 32 base-long oligonucleotide tagged with FITC. […]
Polymerisation reactions were prepared with the Manta polymerase. […] Fluorescence of the reaction products were then quantified with ImageJ (National Institutes of Health).
For each modified uridine triphosphate, the ratio of fully extended product over the total amount of FITC-labelled oligonucleotide was calculated and plotted on a graph as a function of the concentration. […]

T1 sequence (Q51334 other isoform, or with tags, fused parts or gaps DEL493-1029): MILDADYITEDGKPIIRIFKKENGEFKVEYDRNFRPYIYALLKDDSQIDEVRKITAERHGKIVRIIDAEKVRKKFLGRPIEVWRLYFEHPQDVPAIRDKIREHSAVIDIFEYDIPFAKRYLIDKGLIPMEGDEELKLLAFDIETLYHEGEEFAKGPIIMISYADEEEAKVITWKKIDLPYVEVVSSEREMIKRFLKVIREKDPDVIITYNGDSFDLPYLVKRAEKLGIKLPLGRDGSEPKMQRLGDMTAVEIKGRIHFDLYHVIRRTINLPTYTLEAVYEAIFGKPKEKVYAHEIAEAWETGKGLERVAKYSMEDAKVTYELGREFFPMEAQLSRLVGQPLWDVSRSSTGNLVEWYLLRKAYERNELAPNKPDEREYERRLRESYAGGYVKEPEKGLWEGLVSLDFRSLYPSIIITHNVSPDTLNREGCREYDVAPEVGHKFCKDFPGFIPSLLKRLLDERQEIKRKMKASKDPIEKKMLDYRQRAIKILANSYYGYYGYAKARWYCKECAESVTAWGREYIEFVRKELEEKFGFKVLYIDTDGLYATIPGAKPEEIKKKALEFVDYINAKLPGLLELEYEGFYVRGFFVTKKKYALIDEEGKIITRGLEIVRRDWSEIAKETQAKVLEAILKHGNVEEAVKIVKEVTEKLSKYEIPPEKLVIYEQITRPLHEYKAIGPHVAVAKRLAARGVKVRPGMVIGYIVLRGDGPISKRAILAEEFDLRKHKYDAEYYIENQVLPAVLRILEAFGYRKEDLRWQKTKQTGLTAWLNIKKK

Molecule	full length product in polymerisation reaction [1]	full length product in polymerisation reaction [2]	distribution of each modified base in the final hairpin [3]	KD (concentration of the modified dUTP required to produce 50% of fill in reaction) compared with dTTP [4]
O=c1[nH]c(=O)n([C@H]2C[C@H](O)[C@@H](COP(=O)(O)OP(=O)(O)OP(=O)(O)O)O2)cc1Cl [CldU, 5-chloro-2′-deoxyuridine-5′-triphosphate]	full length products were obtained	full length products were obtained	–	–
O=c1[nH]c(=O)n([C@H]2C[C@H](O)[C@@H](COP(=O)(O)OP(=O)(O)OP(=O)(O)O)O2)cc1F [FdU, 5-fluoro-2′-deoxyuridine-5′-triphosphate]	full length products were obtained	full length products were obtained	–	–
pseudouridine-5′-triphosphate	–	–	equal distribution	almost twice the KD of dTTP
